Measurements: PubChem BioAssay (NCI)
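Each compound was tested at five concentrations against cells in 96-well plates for 48 hours. GI50 = concentration required for 50% inhibition of growth. TGI: total growth inhibition.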

Key:
Experiment in all cases: NCI-60 cell line screen, 48 h
NCI-H522 lung = tested on: NCI-H522 lung
MOLT-4 leukemia = tested on: MOLT-4 leukemia
DU-145 prostate = tested on: DU-145 prostate
KM12 colon = tested on: KM12 colon
MDA-MB-435 = tested on: MDA-MB-435
TK-10 renal = tested on: TK-10 renal
SW-620 colon = tested on: SW-620 colon
MCF7 breast = tested on: MCF7 breast
HCC-2998 colon = tested on: HCC-2998 colon
HCT-15 colon = tested on: HCT-15 colon
UACC-257 melanoma = tested on: UACC-257 melanoma
T-47D breast = tested on: T-47D breast
MALME-3M melanoma = tested on: MALME-3M melanoma
NCI-H226 lung = tested on: NCI-H226 lung
OVCAR-5 ovarian = tested on: OVCAR-5 ovarian
SK-MEL-28 melanoma = tested on: SK-MEL-28 melanoma
HL-60(TB) leukemia = tested on: HL-60(TB) leukemia
A549 NSCLC = tested on: A549 NSCLC
CCRF-CEM leukemia = tested on: CCRF-CEM leukemia
U251 CNS = tested on: U251 CNS
BT-549 breast = tested on: BT-549 breast
SN12C renal = tested on: SN12C renal
COLO 205 colon = tested on: COLO 205 colon
SF-268 CNS = tested on: SF-268 CNS
HOP-92 NSCLC = tested on: HOP-92 NSCLC
SK-OV-3 ovarian = tested on: SK-OV-3 ovarian
OVCAR-8 ovarian = tested on: OVCAR-8 ovarian
SNB-19 CNS = tested on: SNB-19 CNS
K-562 leukemia = tested on: K-562 leukemia
786-0 renal = tested on: 786-0 renal
ACHN renal = tested on: ACHN renal
PC-3 prostate = tested on: PC-3 prostate
NCI-H23 lung = tested on: NCI-H23 lung
OVCAR-4 ovarian = tested on: OVCAR-4 ovarian
SK-MEL-5 melanoma = tested on: SK-MEL-5 melanoma
RXF 393 renal = tested on: RXF 393 renal
OVCAR-3 ovarian = tested on: OVCAR-3 ovarian
RPMI-8226 leukemia = tested on: RPMI-8226 leukemia
UO-31 renal = tested on: UO-31 renal
EKVX NSCLC = tested on: EKVX NSCLC
NCI-H460 lung = tested on: NCI-H460 lung
CAKI-1 renal = tested on: CAKI-1 renal
LOX IMVI melanoma = tested on: LOX IMVI melanoma
SK-MEL-2 melanoma = tested on: SK-MEL-2 melanoma
MDA-MB-231 breast = tested on: MDA-MB-231 breast
SNB-75 CNS = tested on: SNB-75 CNS
M14 melanoma = tested on: M14 melanoma
NCI/ADR-RES ovarian = tested on: NCI/ADR-RES ovarian
HCT-116 colon = tested on: HCT-116 colon
A498 renal = tested on: A498 renal
IGROV1 ovarian = tested on: IGROV1 ovarian
HOP-62 NSCLC = tested on: HOP-62 NSCLC
HS 578T breast = tested on: HS 578T breast
SF-295 CNS = tested on: SF-295 CNS
UACC-62 melanoma = tested on: UACC-62 melanoma
HT29 colon = tested on: HT29 colon
SF-539 CNS = tested on: SF-539 CNS

## CC/C=C\C[C@H](O)C/C=C1/C(=O)C=C[C@@H]1C/C=C\CCCC(=O)NC
NCI-H522 lung
  GI50: 1.54 µM
  TGI: 3.77 µM
MOLT-4 leukemia
  GI50: 2.4 µM
  TGI: 11.3 µM
DU-145 prostate
  GI50: 2.73 µM
  TGI: 12.7 µM
KM12 colon
  GI50: 1.36 µM
  TGI: 2.79 µM
MDA-MB-435
  GI50: 1.73 µM
  TGI: 6.64 µM
TK-10 renal
  GI50: 2.85 µM
  TGI: 6.49 µM
SW-620 colon
  GI50: 1.28 µM
  TGI: 4.63 µM
MCF7 breast
  GI50: 0.455 µM
  TGI: 10.7 µM
HCC-2998 colon
  GI50: 1.82 µM
  TGI: 3.35 µM
HCT-15 colon
  GI50: 1.52 µM
  TGI: 5.09 µM
UACC-257 melanoma
  GI50: 2.08 µM
  TGI: 5.32 µM
T-47D breast
  GI50: 2.32 µM
  TGI: 12.5 µM
MALME-3M melanoma
  GI50: 1.94 µM
  TGI: 4.65 µM
NCI-H226 lung
  GI50: 2.15 µM
  TGI: 4.95 µM
OVCAR-5 ovarian
  GI50: 2 µM
  TGI: 4.27 µM
SK-MEL-28 melanoma
  GI50: 1.69 µM
  TGI: 3.6 µM
HL-60(TB) leukemia
  GI50: 1.7 µM
  TGI: 7.24 µM
A549 NSCLC
  GI50: 2.55 µM
  TGI: 6.81 µM
CCRF-CEM leukemia
  GI50: 1.47 µM
  TGI: 8.13 µM
U251 CNS
  GI50: 1.3 µM
  TGI: 4.26 µM
BT-549 breast
  GI50: 1.91 µM
  TGI: 4.99 µM
SN12C renal
  GI50: 2.33 µM
  TGI: 8.5 µM
COLO 205 colon
  GI50: 1.71 µM
  TGI: 3.93 µM
SF-268 CNS
  GI50: 2.94 µM
  TGI: 12.9 µM
HOP-92 NSCLC
  GI50: 3.3 µM
  TGI: 6.66 µM
SK-OV-3 ovarian
  GI50: 2.9 µM
  TGI: 8.54 µM
OVCAR-8 ovarian
  GI50: 2.4 µM
  TGI: 10.2 µM
SNB-19 CNS
  GI50: 6.91 µM
  TGI: 20.9 µM
K-562 leukemia
  GI50: 1.7 µM
  TGI: > 100 µM
786-0 renal
  GI50: 1.81 µM
  TGI: 3.6 µM
ACHN renal
  GI50: 1.56 µM
  TGI: 3.21 µM
PC-3 prostate
  GI50: 1.95 µM
  TGI: 4.79 µM
NCI-H23 lung
  GI50: 1.82 µM
  TGI: 4.22 µM
OVCAR-4 ovarian
  GI50: 3.04 µM
  TGI: 19.5 µM
SK-MEL-5 melanoma
  GI50: 1.62 µM
  TGI: 2.98 µM
RXF 393 renal
  GI50: 1.67 µM
  TGI: 3.17 µM
OVCAR-3 ovarian
  GI50: 1.2 µM
  TGI: 4.11 µM
RPMI-8226 leukemia
  GI50: 0.957 µM
  TGI: 6 µM
UO-31 renal
  GI50: 1.52 µM
  TGI: 3.35 µM
EKVX NSCLC
  GI50: 3.71 µM
  TGI: 15.2 µM
NCI-H460 lung
  GI50: 1.63 µM
  TGI: 4.15 µM
CAKI-1 renal
  GI50: 1.38 µM
  TGI: 4.08 µM
LOX IMVI melanoma
  GI50: 0.317 µM
  TGI: 1.43 µM
SK-MEL-2 melanoma
  GI50: 2.24 µM
  TGI: 6.35 µM
MDA-MB-231 breast
  GI50: 4.24 µM
  TGI: 14.1 µM
SNB-75 CNS
  GI50: 10.8 µM
  TGI: 22.7 µM
M14 melanoma
  GI50: 1.76 µM
  TGI: 4.75 µM
NCI/ADR-RES ovarian
  GI50: 2.5 µM
  TGI: 10.5 µM
HCT-116 colon
  GI50: 0.612 µM
  TGI: 2.04 µM
A498 renal
  GI50: 2.34 µM
  TGI: 5.12 µM
IGROV1 ovarian
  GI50: 2.93 µM
  TGI: 10.7 µM
HOP-62 NSCLC
  GI50: 2.3 µM
  TGI: 5.33 µM
HS 578T breast
  GI50: 5.24 µM
  TGI: 55.2 µM
SF-295 CNS
  GI50: 2.44 µM
  TGI: 6.08 µM
UACC-62 melanoma
  GI50: 1.37 µM
  TGI: 3.5 µM
HT29 colon
  GI50: 1.52 µM
  TGI: 3.25 µM

## CCN(CC)c1ccc(/C=C/C=C(/C#N)C(N)=S)cc1
NCI-H522 lung
  GI50: 8.54 µM
  TGI: 47.8 µM
MOLT-4 leukemia
  GI50: 2.19 µM
  TGI: 12 µM
DU-145 prostate
  GI50: 3.88 µM
  TGI: > 100 µM
KM12 colon
  GI50: 9.6 µM
  TGI: > 100 µM
MDA-MB-435
  GI50: 5.01 µM
  TGI: > 100 µM
TK-10 renal
  GI50: 28.7 µM
  TGI: > 100 µM
SW-620 colon
  GI50: 15.4 µM
  TGI: > 100 µM
MCF7 breast
  GI50: 14.5 µM
  TGI: > 100 µM
HCC-2998 colon
  GI50: 6.46 µM
  TGI: > 100 µM
HCT-15 colon
  GI50: 2.59 µM
  TGI: > 100 µM
UACC-257 melanoma
  GI50: 5.05 µM
  TGI: 34.4 µM
T-47D breast
  GI50: 2.96 µM
  TGI: > 100 µM
MALME-3M melanoma
  GI50: 32 µM
  TGI: > 100 µM
NCI-H226 lung
  GI50: 5.27 µM
  TGI: 30.9 µM
OVCAR-5 ovarian
  GI50: 4.83 µM
  TGI: > 100 µM
SK-MEL-28 melanoma
  GI50: 21.2 µM
  TGI: > 100 µM
HL-60(TB) leukemia
  GI50: 2.53 µM
  TGI: 18.9 µM
A549 NSCLC
  GI50: 5.94 µM
  TGI: > 100 µM
CCRF-CEM leukemia
  GI50: 3.16 µM
  TGI: 71.8 µM
U251 CNS
  GI50: 7.36 µM
  TGI: > 100 µM
SF-539 CNS
  GI50: 12.3 µM
  TGI: 31.3 µM
BT-549 breast
  GI50: 2.73 µM
  TGI: 16 µM
SN12C renal
  GI50: 7.56 µM
  TGI: 75.2 µM
COLO 205 colon
  GI50: 7.13 µM
  TGI: > 100 µM
SF-268 CNS
  GI50: 30.2 µM
  TGI: > 100 µM
HOP-92 NSCLC
  GI50: 10.8 µM
  TGI: 71.3 µM
SK-OV-3 ovarian
  GI50: > 100 µM
  TGI: > 100 µM
OVCAR-8 ovarian
  GI50: 8.07 µM
  TGI: > 100 µM
SNB-19 CNS
  GI50: 40.4 µM
  TGI: > 100 µM
K-562 leukemia
  GI50: 2.83 µM
  TGI: 18.9 µM
786-0 renal
  GI50: 2.76 µM
  TGI: 8.69 µM
ACHN renal
  GI50: 24 µM
  TGI: > 100 µM
PC-3 prostate
  GI50: 5.21 µM
  TGI: > 100 µM
NCI-H23 lung
  GI50: 8.45 µM
  TGI: > 100 µM
OVCAR-4 ovarian
  GI50: 6.27 µM
  TGI: > 100 µM
SK-MEL-5 melanoma
  GI50: 5.96 µM
  TGI: > 100 µM
OVCAR-3 ovarian
  GI50: 10.9 µM
  TGI: > 100 µM
RPMI-8226 leukemia
  GI50: 2.14 µM
  TGI: 7.88 µM
UO-31 renal
  GI50: 4.39 µM
  TGI: > 100 µM
EKVX NSCLC
  GI50: 6.5 µM
  TGI: > 100 µM
NCI-H460 lung
  GI50: 18.1 µM
  TGI: > 100 µM
CAKI-1 renal
  GI50: 31.8 µM
  TGI: > 100 µM
LOX IMVI melanoma
  GI50: 4.71 µM
  TGI: 28.3 µM
SK-MEL-2 melanoma
  GI50: 20.9 µM
  TGI: > 100 µM
MDA-MB-231 breast
  GI50: 2.11 µM
  TGI: 6.03 µM
SNB-75 CNS
  GI50: 20.4 µM
  TGI: > 100 µM
M14 melanoma
  GI50: 2.53 µM
  TGI: 9.33 µM
NCI/ADR-RES ovarian
  GI50: 3.85 µM
  TGI: > 100 µM
HCT-116 colon
  GI50: 3.58 µM
  TGI: 17.7 µM
A498 renal
  GI50: 10.9 µM
  TGI: 58.9 µM
IGROV1 ovarian
  GI50: 17.9 µM
  TGI: > 100 µM
HOP-62 NSCLC
  GI50: 5.37 µM
  TGI: 32.3 µM
HS 578T breast
  GI50: 38.5 µM
  TGI: > 100 µM
SF-295 CNS
  GI50: 27.6 µM
  TGI: > 100 µM
UACC-62 melanoma
  GI50: 15.2 µM
  TGI: 48.8 µM
HT29 colon
  GI50: 2.84 µM
  TGI: 23.9 µM
